This note sets out measurements from patent US9890407B2, “Method for synthesizing cellulose in vitro” (University of Virginia Patent Foundation, priority 2013, dated 2018).

The assay relates to Rs BcsA-B complex. The experiment in a line: Cellulose synthase sedimentation assay (3H-labeled water-insoluble cellulose, scintillation counting). Format: biochemical, Rhodobacter sphaeroides. Particulars: increasing nucleotide concentrations, 0.5 mM UDP-Glc, PL-reconstituted BcsA-B. On the procedure:
(FIG. 4A) Enzyme-coupled cellulose synthesis assays were performed as described in FIG. 3 in the absence or presence of 0.1 mg/ml E. coli BesZ. […] Inset: Radioactive sedimentation assay performed with ND-reconstituted BcsA-B synthesizing cellulose in the absence or presence of BcsZ. […] The obtained product is quantified relative to the polymer formed in the absence of any nucleoside diphosphate.
FIG. 9A-9B (also referred to as Example 1, Supplementary FIG. 3): Cation selectivity and pH optimum of cellulose synthase. (FIG. 9A) Cellulose synthesis reactions were performed in the presence of 20 mM of the indicated cations or in the absence of any additional divalent cations with and without addition of 20 mM EDTA. The activities are shown relative to the activity in the presence of magnesium. […] All activity assays were performed for 45 min at 37° C. with 1 μM PLs-reconstituted. Rs BcsA-B and by quantifying the accumulation of ^3H-labeled water insoluble cellulose as described.
Following incubation at 37° C. for 45 min, the polymerization reaction was terminated by addition of 2% SDS and the water-insoluble polymer was pelleted by centrifugation at 15,000 rpm at room temperature (RT). The obtained pellet was resuspended in 20 μL 50 mM Tris pH 7.5, 0.1 M NaCl and spotted at the origin of a descending Whatman-2MM chromatography paper, which was developed in an aqueous solution of 60% ethanol. For enzymatic degradation, the pellet was resuspended in 20 μL 50 mM sodium acetate pH 4.5 and 100 mM NaCl and was digested with 0.1 mg/ml of endo-β-1,4- or endo-β-1,3 glucanase from Aspergillus niger (TCI) or Trichoderma sp. (Megazyme), respectively. Following paper chromatography, the high molecular weight polymer retained at the origin was quantified by scintillation counting.
Following synthesis, the reactions were treated as described above.

For `Nc1ncnc2c1ncn2[C@@H]1O[C@H](COP(=O)(O)OP(=O)(O)O)[C@@H](O)[C@H]1O` [adenosine-diphosphate], the “inhibition of cellulose synthesis by nucleoside diphosphates” value is “do not inhibit”.
In the case of `Nc1nc2c(ncn2[C@@H]2O[C@H](COP(=O)(O)OP(=O)(O)O)[C@@H](O)[C@H]2O)c(=O)[nH]1` [guanosine-diphosphate], the “inhibition of cellulose synthesis by nucleoside diphosphates” value is “do not inhibit”.
